Data taken from patent US7390923B2, “Propionamide derivatives useful as androgen receptor modulators” (Orion Corporation, priority 2003, dated 2008).

Target: T1, androgen receptor (AR) (Rattus norvegicus, UniProt P15207)
T1 construct: Ventral prostates were obtained form rats castrated 24 h prior to sacrifice; from tissue; host or cells: rat ventral prostate cytosol (castrated rats, charcoal-treated)
T1 sequence (P15207 1-902): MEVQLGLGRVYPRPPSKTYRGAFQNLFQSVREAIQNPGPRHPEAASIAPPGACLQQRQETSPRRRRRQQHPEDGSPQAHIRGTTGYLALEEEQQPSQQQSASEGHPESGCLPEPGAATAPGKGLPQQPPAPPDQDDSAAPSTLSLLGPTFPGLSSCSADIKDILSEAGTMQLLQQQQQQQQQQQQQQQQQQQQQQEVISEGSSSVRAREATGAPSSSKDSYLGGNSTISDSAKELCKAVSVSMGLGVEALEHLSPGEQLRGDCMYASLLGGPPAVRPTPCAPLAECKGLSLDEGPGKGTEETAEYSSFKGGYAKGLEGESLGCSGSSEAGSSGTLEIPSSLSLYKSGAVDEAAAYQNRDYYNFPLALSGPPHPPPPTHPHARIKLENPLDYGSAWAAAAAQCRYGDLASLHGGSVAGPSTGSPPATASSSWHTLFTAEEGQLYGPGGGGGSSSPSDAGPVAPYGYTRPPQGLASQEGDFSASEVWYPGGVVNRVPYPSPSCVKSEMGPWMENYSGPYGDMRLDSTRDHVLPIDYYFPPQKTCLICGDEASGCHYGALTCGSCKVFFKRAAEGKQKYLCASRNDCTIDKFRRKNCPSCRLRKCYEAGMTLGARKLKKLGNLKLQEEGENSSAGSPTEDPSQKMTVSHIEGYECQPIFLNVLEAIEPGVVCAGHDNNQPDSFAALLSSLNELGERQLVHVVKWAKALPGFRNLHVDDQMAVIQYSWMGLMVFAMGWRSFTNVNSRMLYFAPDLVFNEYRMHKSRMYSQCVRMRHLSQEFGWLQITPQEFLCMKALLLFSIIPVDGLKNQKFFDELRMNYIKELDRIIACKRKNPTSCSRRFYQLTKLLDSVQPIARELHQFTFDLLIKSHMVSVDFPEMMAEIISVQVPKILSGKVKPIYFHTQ
Experiment: AR binding assay, competition with [3H]-mibolerone binding in rat ventral prostate cytosol
Details: 1 nM [3H]-mibolerone, overnight at 0° C.; for inhibition at 0.2 µM / Inhibition (%) of [3H]-mibolerone binding at 0.2 μM: test compound 0.2 μM; for inhibition at 2 µM / Inhibition (%) of [3H]-mibolerone binding at 2.0 μM: test compound 2.0 μM
Procedure: Ventral prostates were obtained form rats castrated 24 h prior to sacrifice. Fresh prostate was minced and washed with Buffer A (Schilling and Liao, Prostate, 5:581-588, 1984). The minces were then homogenized in 3× volume of Buffer A containing protease inhibitors (Complete, Mini, EDTA-free Roche). The homogenate was centrifuged at 30000 g for 30 min. The resultant supernatants were treated with 1×volume of dextran-coated charcoal solution (12.5 g activated charcoal, 12.5 g dextran per liter of buffer A) to remove endogenous steroids. The samples were incubated for 5 min and centrifuged at 16000 g for 10 min. Aliquots of the charcoal-treated cytosol were taken for androgen receptor assays. All procedures were carried out at 0-4° C.
Cytosol androgen receptor concentration was determined as described (Isomaa et al., Endocrinology, 111: 833-843, 1982) with minor modifications. Cytosol preparations were prepared as described above, and bound and free steroids were separated by treatment with an equal volume of dextran-charcoal suspension for 5 min at 4° C. followed by centrifugation at 16000 g for 10 min. Bound radioactivity was determined by counting supernatant fractions in 1 ml of OptiPhase HiSafe3 or OptiPhase Supermix (PerkinElmer).
Cytosol preparations were labelled with 1 nM [^3H]-mibolerone overnight at 0° C. (total). To determine AR binding activity of the compounds of the present invention (test compounds), the ability of test compounds to compete with [^3H]7α,17α-dimethyl-17β-hydroxy-4-estren-3-one ([^3H]-mibolerone) binding was studied. 1 nM [^3H]-mibolerone and test compounds in two concentrations (0.2 and 2 uM) were incubated overnight at 0° C. To determine non-specific binding, parallel incubations were carried out using 1 nM concentration [^3H]-mibolerone with 500-fold molar excess of unlabelled testosterone. Two to four replicates were used for each sample. After incubation, bound and free steroids were separated as described above and bound radioactivity was determined. The ability of the test compounds to bind AR is reported as reduction in bound radioactivity obtained with 1 nM [^3H]-mibolerone. The results (% inhibition) were calculated as: % inhibition=100−(100×(averagetest compound/averagetotal)).

Row | Structure (SMILES) | inhibition at 0.2 µM [%] | inhibition at 2 µM [%] | Inhibition (%) of [3H]-mibolerone binding at 0.2 μM [%] | Inhibition (%) of [3H]-mibolerone binding at 2.0 μM [%]
1 | Cc1cc(NC(=O)C(C)(O)COc2ccc(F)c(Cl)c2)ccc1[N+](=O)[O-] (centres unmarked) [Example 8, 3-(3-Chloro-4-fluorophenoxy)-2-hydroxy-2-methyl-N-(3-methyl-4-nitrophenyl)propionamide] | 93 | 109 |  | 
2 | Cc1cc(NC(=O)C(C)(O)COc2ccc(CCCCl)cc2)ccc1[N+](=O)[O-] (centres unmarked) [Example 79, 3-[4-(3-Chloropropyl)phenoxy]-2-hydroxy-2-methyl-N-(3-methyl-4-nitrophenyl)propionamide] | 89 | 98 |  | 
3 | Cc1ccc(OCC(C)(O)C(=O)Nc2ccc([N+](=O)[O-])c(C)c2)cc1 (centres unmarked) [Example 12, 2-Hydroxy-2-methyl-N-(3-methyl-4-nitrophenyl)-3-p-tolyloxypropionamide] | 77 | 101 |  | 
4 | Cc1cc(NC(=O)C(C)(O)CNc2ccc(F)cc2)ccc1[N+](=O)[O-] (centres unmarked) [Example 52, 3-(4-Fluorophenylamino)-2-hydroxy-2-methyl-N-(3-methyl-4-nitrophenyl)propionamide] | 90 | 115 |  | 
5 | Cc1cc(NC(=O)C(C)(O)COc2ccc(Cl)c(Cl)c2)ccc1[N+](=O)[O-] (centres unmarked) [Example 6, 3-(3,4-Dichlorophenoxy)-2-hydroxy-2-methyl-N-(3-methyl-4-nitrophenyl)propionamide] | 68 | 95 |  | 
6 | CC(=O)Nc1ccc(OCC(C)(O)C(=O)Nc2ccc([N+](=O)[O-])c(C)c2)cc1 (centres unmarked) [Example 1, 3-(4-Acetylaminophenoxy)-2-hydroxy-2-methyl-N-(3-methyl-4-nitrophenyl)propionamide] | 91 | 101 |  | 
7 | CC(O)(COc1ccc(C#N)c(F)c1)C(=O)Nc1ccc([N+](=O)[O-])c(CO)c1 (centres unmarked) [Example 51, 3-(4-Cyano-3-fluorophenoxy)-2-hydroxy-N-(3-hydroxymethyl-4-nitrophenyl)-2-methylpropionamide] | 73 | 92 |  | 
8 | Cc1cc(NC(=O)C(C)(O)COc2ccc3cc(Br)ccc3c2)ccc1[N+](=O)[O-] (centres unmarked) [Example 30, 3-(6-Bromonaphtalen-2-yloxy)-2-hydroxy-2-methyl-N-(3-methyl-4-nitrophenyl)-propionamide] |  |  | 80 | 99
9 | CCOC(=O)c1ccc(OCC(C)(O)C(=O)Nc2ccc([N+](=O)[O-])c(C)c2)cc1 (centres unmarked) [Example 7, 4-[2-Hydroxy-2-(3-methyl-4-nitrophenylcarbamoyl)propoxy]benzoic acid ethyl ester] | 74 | 98 |  | 
10 | Cc1cc(NC(=O)C(C)(O)COc2ccc(C#N)cc2)ccc1[N+](=O)[O-] (centres unmarked) [Example 17, 3-(4-Cyanophenoxy)-2-hydroxy-2-methyl-N-(3-methyl-4-nitrophenyl)propionamide] | 95 | 98 |  | 
11 | CC(=O)c1ccc(OCC(C)(O)C(=O)Nc2ccc([N+](=O)[O-])c(C)c2)cc1 (centres unmarked) [Example 16, 3-(4-Acetylphenoxy)-2-hydroxy-2-methyl-N-(3-methyl-4-nitrophenyl)propionamide] | 50 | 91 |  | 
12 | Cc1cc(NC(=O)C(C)(O)COc2ccc(C(F)(F)F)cc2)ccc1[N+](=O)[O-] (centres unmarked) [Example 15, 2-Hydroxy-2-methyl-N-(3-methyl-4-nitrophenyl)-3-(4-trifluoromethylphenoxy)propionamide] | 46 | 77 |  | 
13 | Cc1cc(NC(=O)C(C)(O)COc2ccc(OC(F)(F)F)cc2)ccc1[N+](=O)[O-] (centres unmarked) [Example 9, 2-Hydroxy-2-methyl-N-(3-methyl-4-nitrophenyl)-3-(4-trifluoromethoxyphenoxy)propionamide] | 41 | 102 |  | 
14 | Cc1cc(NC(=O)C(C)(O)COc2ccc(NC(=O)C(F)(F)F)cc2)ccc1[N+](=O)[O-] (centres unmarked) [Example 13, 2-Hydroxy-2-methyl-N-(3-methyl-4-nitrophenyl)-3-[4-(2,2,2-trifluoroacetylamino)phenoxy]propionamide] | 77 | 90 |  | 
15 | Cc1cc(NC(=O)C(C)(O)COc2ccc(C(N)=O)cc2)ccc1[N+](=O)[O-] (centres unmarked) [Example 5, 4-[2-Hydroxy-2-(3-methyl-4-nitrophenylcarbamoyl)propoxy]benzamide] | 25 | 74 |  | 
16 | Cc1cc(NC(=O)C(C)(O)COc2ccccc2F)ccc1[N+](=O)[O-] (centres unmarked) [Example 19, 3-(2-Fluorophenoxy)-2-hydroxy-2-methyl-N-(3-methyl-4-nitrophenyl)propionamide] | 83 | 99 |  | 
17 | Cc1cc(NC(=O)C(C)(O)COc2ccccc2)ccc1[N+](=O)[O-] (centres unmarked) [Example 14, 2-Hydroxy-2-methyl-N-(3-methyl-4-nitrophenyl)-3-phenoxypropionamide] | 75 | 95 |  | 
18 | Cc1cc(NC(=O)C(C)(O)COc2ccncc2)ccc1[N+](=O)[O-] (centres unmarked) [Example 58, 2-Hydroxy-2-methyl-N-(3-methyl-4-nitrophenyl)-3-(pyridin-4-yloxo)propionamide] |  |  | 84 | 93
19 | Cc1cc(NC(=O)C(C)(O)COc2ccc(F)cc2)ccc1[N+](=O)[O-] (centres unmarked) [Example 11, 3-(4-Fluorophenoxy)-2-hydroxy-2-methyl-N-(3-methyl-4-nitrophenyl)propionamide] | 98 | 105 |  | 
20 | Cc1cc(NC(=O)C(C)(O)COc2ccc(Cl)cc2)ccc1[N+](=O)[O-] (centres unmarked) [Example 23, 3-(4-Chlorophenoxy)-2-hydroxy-2-methyl-N-(3-methyl-4-nitrophenyl)propionamide] | 88 | 92 |  | 
21 | Cc1cc(NC(=O)C(C)(O)COc2ccc(C#N)c(F)c2)ccc1[N+](=O)[O-] (centres unmarked) [Example 42, 3-(4-Cyano-3-fluorophenoxy)-2-hydroxy-2-methyl-N-(3-methyl-4-nitrophenyl)propionamide] | 83 | 97 |  | 
22 | CCOC(=O)Nc1ccc(OCC(C)(O)C(=O)Nc2ccc([N+](=O)[O-])c(C)c2)cc1F (centres unmarked) [Example 50, {2-Fluoro-4-[2-hydroxy-2-(3-methyl-4-nitrophenylcarbamoyl)propoxy]-phenyl}carbamic acid ethyl ester] | 96 | 99 |  | 
23 | Cc1cc(NC(=O)C(C)(O)COc2cccc(Cl)c2Cl)ccc1[N+](=O)[O-] (centres unmarked) [Example 10, 3-(2,3-Dichlorophenoxy)-2-hydroxy-2-methyl-N-(3-methyl-4-nitrophenyl)propionamide] | 5 | 83 |  | 
24 | COc1ccc(OCC(C)(O)C(=O)Nc2ccc([N+](=O)[O-])c(C)c2)cc1 (centres unmarked) [Example 25, 2-Hydroxy-3-(4-methoxyphenoxy)-2-methyl-N-(3-methyl-4-nitrophenyl)propionamide] | 96 | 98 |  | 
25 | COCc1ccc(OCC(C)(O)C(=O)Nc2ccc([N+](=O)[O-])c(C)c2)cc1 (centres unmarked) [Example 81, 2-Hydroxy-3-(4-methoxymethylphenoxy)-2-methyl-N-(3-methyl-4-nitrophenyl)propionamide] | 85 | 98 |  | 
